In one data set the target is T1, Abl(T315I) (Homo sapiens, UniProt P00519, T315I).
T1 construct: purchased Caliper LifeSciences (ProfilerPro Kinase Selectivity Assay Kits)
As to the kind of experiment: Caliper kinase profiling: Abl(T315I). The data set is classed as biochemical.

Another data set has as its target T2, TYRO3 (Homo sapiens, UniProt Q06418).
T2 sequence (Q06418 41-890): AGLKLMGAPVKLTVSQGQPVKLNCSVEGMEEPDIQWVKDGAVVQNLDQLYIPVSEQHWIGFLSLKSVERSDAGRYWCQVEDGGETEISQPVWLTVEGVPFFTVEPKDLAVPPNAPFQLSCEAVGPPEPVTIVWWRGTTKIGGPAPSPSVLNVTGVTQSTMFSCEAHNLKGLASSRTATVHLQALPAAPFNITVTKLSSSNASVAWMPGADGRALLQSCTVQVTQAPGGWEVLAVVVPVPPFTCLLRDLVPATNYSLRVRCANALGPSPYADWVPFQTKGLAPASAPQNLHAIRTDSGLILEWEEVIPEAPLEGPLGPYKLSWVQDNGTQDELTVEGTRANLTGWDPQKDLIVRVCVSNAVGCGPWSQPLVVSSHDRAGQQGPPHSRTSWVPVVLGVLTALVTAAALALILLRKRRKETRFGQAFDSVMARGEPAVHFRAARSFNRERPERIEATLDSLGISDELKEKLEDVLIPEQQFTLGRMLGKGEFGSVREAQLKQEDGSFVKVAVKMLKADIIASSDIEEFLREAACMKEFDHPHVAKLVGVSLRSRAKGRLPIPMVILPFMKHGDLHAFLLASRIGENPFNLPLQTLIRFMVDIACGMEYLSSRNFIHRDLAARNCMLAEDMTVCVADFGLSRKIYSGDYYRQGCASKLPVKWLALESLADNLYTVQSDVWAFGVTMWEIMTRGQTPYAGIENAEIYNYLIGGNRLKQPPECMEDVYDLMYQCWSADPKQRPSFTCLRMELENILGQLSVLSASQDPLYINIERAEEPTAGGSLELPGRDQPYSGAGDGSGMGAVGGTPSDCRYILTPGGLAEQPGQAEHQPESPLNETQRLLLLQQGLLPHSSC
As to the kind of experiment: Caliper kinase profiling: TYRO3. The data set is classed as biochemical.

Another data set concerns the target Flt3(D835Y) (Homo sapiens, UniProt P36888, D835Y). In words: Caliper kinase profiling: Flt3(D835Y). Conditions: read-out: Average % Inh @ 1 μM. In kind it is biochemical.
A further data set concerns the target FGFR3 (Homo sapiens, UniProt P22607). In words: Caliper kinase profiling: FGFR3. The following applies: FGFR3, 1 μM; read-out: Average % Inh @ 1 μM. In kind it is biochemical.
A further data set deals with DDR2 (Homo sapiens, UniProt Q16832). In words: Caliper kinase profiling: DDR2. The following applies: DDR2, 1 μM; read-out: Average % Inh @ 1 μM. In kind it is biochemical.
Sequence of DDR2 (Q16832 22-855): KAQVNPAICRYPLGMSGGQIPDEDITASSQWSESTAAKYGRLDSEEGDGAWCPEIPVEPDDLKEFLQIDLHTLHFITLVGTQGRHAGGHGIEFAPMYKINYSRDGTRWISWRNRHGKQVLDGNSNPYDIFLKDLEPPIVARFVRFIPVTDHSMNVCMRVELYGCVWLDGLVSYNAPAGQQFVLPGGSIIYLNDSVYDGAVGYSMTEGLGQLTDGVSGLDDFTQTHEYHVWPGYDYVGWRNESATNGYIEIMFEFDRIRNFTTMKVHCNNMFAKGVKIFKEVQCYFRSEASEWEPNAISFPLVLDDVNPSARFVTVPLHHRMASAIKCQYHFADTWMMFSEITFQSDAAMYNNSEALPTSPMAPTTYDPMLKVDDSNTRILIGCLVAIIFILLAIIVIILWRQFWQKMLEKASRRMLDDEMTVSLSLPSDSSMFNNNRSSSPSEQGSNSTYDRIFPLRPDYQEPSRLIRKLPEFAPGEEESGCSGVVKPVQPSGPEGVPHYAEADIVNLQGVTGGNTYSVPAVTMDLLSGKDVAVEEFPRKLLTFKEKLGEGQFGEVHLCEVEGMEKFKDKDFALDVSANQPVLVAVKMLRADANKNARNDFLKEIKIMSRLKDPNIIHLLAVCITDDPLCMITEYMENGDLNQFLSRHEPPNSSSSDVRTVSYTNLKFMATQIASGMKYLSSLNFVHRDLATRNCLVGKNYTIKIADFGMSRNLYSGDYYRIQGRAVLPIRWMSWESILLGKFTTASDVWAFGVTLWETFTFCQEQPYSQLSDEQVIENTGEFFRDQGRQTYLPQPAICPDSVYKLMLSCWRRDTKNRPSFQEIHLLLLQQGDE
The next data set addresses JAK2 (Homo sapiens, UniProt O60674). As to the kind of experiment: Caliper kinase profiling: JAK2. In kind it is biochemical. The following applies: JAK2, 1 μM; read-out: Average % Inh @ 1 μM.
The next data set deals with EPHA3 (Homo sapiens, UniProt P29320). As to the kind of experiment: Caliper kinase profiling: EPHA3. In kind it is biochemical. Conditions: EPHA3, 1 μM; read-out: Average % Inh @ 1 μM.
Sequence of EPHA3 (P29320 21-983): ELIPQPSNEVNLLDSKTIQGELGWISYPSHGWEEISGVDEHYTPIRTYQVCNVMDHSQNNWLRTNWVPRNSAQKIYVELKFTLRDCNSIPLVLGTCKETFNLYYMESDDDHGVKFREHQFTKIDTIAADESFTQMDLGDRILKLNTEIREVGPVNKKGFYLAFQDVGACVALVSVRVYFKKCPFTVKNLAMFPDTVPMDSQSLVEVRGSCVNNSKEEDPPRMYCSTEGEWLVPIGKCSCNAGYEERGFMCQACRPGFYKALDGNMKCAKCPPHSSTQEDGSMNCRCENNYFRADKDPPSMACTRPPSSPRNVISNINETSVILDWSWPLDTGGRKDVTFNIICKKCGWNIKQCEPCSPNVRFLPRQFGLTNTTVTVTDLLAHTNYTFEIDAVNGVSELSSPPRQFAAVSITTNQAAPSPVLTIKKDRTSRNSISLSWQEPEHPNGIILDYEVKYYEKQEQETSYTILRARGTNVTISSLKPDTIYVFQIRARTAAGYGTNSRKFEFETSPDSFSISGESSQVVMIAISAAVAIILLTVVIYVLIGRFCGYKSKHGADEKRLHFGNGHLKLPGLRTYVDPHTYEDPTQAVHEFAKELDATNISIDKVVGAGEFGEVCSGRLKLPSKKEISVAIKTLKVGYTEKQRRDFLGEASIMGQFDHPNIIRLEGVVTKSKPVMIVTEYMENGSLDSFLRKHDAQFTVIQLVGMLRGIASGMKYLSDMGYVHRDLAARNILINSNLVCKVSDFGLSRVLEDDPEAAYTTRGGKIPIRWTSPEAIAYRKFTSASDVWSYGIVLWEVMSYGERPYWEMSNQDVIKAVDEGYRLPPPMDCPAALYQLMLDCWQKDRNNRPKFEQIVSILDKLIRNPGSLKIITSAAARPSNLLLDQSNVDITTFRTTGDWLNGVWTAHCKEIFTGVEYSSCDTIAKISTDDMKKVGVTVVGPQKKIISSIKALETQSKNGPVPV
Another data set deals with SRC (Homo sapiens, UniProt P12931). As to the kind of experiment: Caliper kinase profiling: SRC. The data set is classed as biochemical.
Sequence of SRC (P12931 whole entry): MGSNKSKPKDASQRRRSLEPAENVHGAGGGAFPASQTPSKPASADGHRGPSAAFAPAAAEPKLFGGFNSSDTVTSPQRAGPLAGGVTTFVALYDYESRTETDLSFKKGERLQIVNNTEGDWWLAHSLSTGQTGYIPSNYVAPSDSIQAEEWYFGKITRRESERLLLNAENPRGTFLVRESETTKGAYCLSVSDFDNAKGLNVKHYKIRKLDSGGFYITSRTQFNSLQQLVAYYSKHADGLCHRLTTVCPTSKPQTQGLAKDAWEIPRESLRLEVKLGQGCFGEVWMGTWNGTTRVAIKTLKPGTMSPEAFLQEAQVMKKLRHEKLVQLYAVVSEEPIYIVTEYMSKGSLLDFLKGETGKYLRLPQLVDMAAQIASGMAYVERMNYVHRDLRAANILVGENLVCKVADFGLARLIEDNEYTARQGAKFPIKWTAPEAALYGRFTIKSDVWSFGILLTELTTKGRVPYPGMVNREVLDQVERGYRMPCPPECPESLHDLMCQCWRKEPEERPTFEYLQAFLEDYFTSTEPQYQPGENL
In another data set the target is LYN (Homo sapiens, UniProt P07948). As to the kind of experiment: Caliper kinase profiling: LYN. In kind it is biochemical.
Sequence of LYN (P07948 whole entry): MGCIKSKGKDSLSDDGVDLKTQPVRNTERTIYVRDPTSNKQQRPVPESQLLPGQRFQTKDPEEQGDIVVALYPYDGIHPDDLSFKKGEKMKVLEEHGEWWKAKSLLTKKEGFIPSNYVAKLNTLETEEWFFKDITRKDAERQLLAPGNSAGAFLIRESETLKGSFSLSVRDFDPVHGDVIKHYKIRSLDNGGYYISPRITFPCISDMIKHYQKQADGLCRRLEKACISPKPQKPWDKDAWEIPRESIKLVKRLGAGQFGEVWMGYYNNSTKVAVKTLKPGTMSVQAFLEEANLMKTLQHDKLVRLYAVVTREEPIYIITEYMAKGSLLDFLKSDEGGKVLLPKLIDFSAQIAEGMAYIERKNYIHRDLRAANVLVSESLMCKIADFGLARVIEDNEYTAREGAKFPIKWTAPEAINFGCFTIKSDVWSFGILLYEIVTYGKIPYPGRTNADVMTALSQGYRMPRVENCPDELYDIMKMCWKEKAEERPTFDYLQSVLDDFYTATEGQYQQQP
In the next data set the target is BTK (Homo sapiens, UniProt Q06187). In words: Caliper kinase profiling: BTK. The data set is classed as biochemical. The following applies: read-out: Average % Inh @ 1 μM.
Sequence of BTK (Q06187 whole entry): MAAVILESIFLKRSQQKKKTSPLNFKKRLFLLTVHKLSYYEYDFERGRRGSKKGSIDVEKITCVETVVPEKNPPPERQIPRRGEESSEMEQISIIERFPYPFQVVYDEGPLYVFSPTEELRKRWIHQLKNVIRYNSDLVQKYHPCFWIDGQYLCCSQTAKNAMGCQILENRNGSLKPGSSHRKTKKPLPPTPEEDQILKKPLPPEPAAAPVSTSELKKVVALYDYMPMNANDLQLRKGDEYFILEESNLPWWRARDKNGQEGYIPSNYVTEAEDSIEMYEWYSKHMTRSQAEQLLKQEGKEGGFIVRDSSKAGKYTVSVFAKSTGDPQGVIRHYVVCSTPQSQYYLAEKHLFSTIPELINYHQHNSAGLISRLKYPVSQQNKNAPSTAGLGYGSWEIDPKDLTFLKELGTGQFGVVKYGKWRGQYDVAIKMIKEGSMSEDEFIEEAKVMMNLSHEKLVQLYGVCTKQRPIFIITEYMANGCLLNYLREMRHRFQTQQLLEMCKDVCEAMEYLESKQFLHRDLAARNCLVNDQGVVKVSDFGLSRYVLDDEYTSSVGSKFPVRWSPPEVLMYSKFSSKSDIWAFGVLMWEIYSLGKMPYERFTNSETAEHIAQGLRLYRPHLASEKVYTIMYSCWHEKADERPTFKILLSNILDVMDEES
A further data set has as its target Yes (Homo sapiens, UniProt P07947). As to the kind of experiment: Caliper kinase profiling: Yes. In kind it is biochemical.
For data set [1], the system named is human colon cancer COLO-205 cells. As to the kind of experiment: Efficacy in xenograft model of human colon cancer. The data set is classed as in vivo, mice. As to the method: To evaluate the efficacy of tumor growth inhibition, the compound 8b was studied using human cancer mouse models. The models are prepared by subcutaneously or orthotopically implanting mice with human cancer cells. When the tumor size of the mice develops (e.g., reaches 100 mm^3), the mice are divided into groups for treatment with compound 8b (where different groups receiving the compound 8b may be administered different amounts of the compound 8b) or are provided no compound as a control. The mice are treated (e.g., orally administered a compound of the invention) for a period of time. During the course of the study, the tumor is measured and the weight of the mice is determined. After the treatment period, the mice are sacrificed shortly (e.g. 1 or 2 hours) after the final dose. Blood and tissue are collected for biochemical analysis.
To evaluate the efficacy of tumor growth inhibition, compound 8b was studied using a human colon cancer mouse model. […] Tumor volume and mouse body weight were monitored over the 20 day experiment. […]
The appropriate amount of compound 8b was sonicated in a PEG-400 solution (80% w/v in case of Example B6B; and 50% w/v in case of Example B6C) to completely dissolve the compound, followed by dropwise addition of the required amount of H2O. […] During the course of the study, the tumor was measured and the weight of the mice was determined. […]
A general note: In xenograft studies the graft and the host belong to different species.

The mark [2] stands for this setting: 10 nM, read-out: Average % Inh @ 10 nM.
Where [3] appears, read: 100 nM, read-out: Average % Inh @ 100 nM.
Where [4] appears, read: 1 μM, read-out: Average % Inh @ 1 μM.

Where only a bound is given, the exact number is not on record here.

Sequence of Yes (P07947 whole entry): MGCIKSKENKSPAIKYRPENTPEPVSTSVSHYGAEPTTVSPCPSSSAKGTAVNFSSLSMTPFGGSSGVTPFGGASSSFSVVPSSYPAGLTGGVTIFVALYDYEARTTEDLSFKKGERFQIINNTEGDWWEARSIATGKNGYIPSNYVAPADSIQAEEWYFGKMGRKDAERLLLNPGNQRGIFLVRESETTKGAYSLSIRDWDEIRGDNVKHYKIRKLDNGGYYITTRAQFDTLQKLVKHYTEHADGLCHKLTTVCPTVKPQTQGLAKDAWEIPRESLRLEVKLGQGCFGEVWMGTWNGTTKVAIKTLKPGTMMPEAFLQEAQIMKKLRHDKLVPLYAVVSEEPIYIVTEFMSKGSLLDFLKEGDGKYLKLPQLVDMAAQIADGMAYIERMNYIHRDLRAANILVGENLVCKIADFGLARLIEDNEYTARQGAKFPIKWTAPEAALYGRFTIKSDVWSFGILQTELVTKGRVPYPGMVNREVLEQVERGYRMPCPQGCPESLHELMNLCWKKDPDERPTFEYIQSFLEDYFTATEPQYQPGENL
Sequence of FGFR3 (P22607 23-806): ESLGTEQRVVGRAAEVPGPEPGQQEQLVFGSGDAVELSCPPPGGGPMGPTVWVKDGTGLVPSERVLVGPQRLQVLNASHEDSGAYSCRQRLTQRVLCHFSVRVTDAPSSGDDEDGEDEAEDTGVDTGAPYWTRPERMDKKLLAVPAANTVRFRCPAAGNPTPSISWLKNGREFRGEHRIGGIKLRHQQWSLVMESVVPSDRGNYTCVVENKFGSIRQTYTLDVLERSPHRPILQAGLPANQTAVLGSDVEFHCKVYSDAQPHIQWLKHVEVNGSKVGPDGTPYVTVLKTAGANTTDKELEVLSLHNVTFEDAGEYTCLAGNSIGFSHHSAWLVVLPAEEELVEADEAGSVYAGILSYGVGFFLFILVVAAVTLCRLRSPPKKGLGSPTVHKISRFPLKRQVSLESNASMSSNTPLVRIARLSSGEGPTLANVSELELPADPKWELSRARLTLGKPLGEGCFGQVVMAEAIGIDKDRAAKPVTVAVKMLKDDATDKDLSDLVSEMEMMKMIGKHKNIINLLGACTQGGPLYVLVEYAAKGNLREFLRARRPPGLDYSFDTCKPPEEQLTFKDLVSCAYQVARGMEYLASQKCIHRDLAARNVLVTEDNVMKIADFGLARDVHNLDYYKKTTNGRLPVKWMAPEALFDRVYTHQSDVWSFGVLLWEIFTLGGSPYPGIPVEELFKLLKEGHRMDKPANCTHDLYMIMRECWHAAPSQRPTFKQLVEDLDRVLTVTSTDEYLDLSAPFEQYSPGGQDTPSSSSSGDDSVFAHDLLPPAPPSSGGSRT

`O=C(Nc1ccc(F)nc1)C1CCCN1c1nc2c(c(Nc3cc(C4CC4)[nH]n3)n1)CCC2` (single isomer, unassigned) [Compound 2b, 1-(4-(5-cyclopropyl-1H-pyrazol-3-ylamino)-6,7-dihydro-5H-cyclopenta[d]pyrimidin-2-yl)-N-(6-fluoropyridin-3-yl)pyrrolidine-2-carboxamide]: the inhibition at 0.01 µM at Abl(T315I) (setting [2]) was below 39%; at TYRO3 (TYRO3, 10 nM, read-out: Average % Inh @ 10 nM) it was below 39%; on SRC (setting [2]) it was below 39%; on LYN (setting [2]), below 39%; on Yes (setting [2]), below 39%. Besides, the inhibition at 0.1 µM is below 39% at Abl(T315I) (setting [3]); below 39% on TYRO3 (TYRO3, 100 nM, read-out: Average % Inh @ 100 nM); above 60% on SRC (setting [3]); 40 to 59% on LYN (setting [3]); 40 to 59% at Yes (setting [3]). The inhibition at 1 µM on Abl(T315I) (setting [4]) was above 60%; at TYRO3 (TYRO3, 1 μM, read-out: Average % Inh @ 1 μM) it was above 60%; at Flt3(D835Y), above 60%; on FGFR3, above 60%; on DDR2, above 60%; at JAK2, above 60%. Moreover, the inhibition at 1 µM at EPHA3 is 40 to 59%; on SRC (setting [4]), above 60%; at LYN (setting [4]), above 60%; at BTK, 40 to 59%; on Yes (setting [4]) it was above 60%.
Take `CC(C)c1cc(Nc2nc(N3CCCC3C(=O)Nc3ccc(F)nc3)nc3c2CCC3)n[nH]1` (single isomer, unassigned) [Compound 8b]: the tumor burden result in [1] (COLO205 colon cancer model, nude mice, 1, 3, 10, 15 mg/kg oral, 20 day experiment (FIG. 1)) was “dose-dependently and significantly reduced tumor burden”. Besides, the “body weights of the mice” value in data set [1] (COLO205 xenograft model (FIG. 3)) is “dose-dependently reduced body weights”.

These data come from patent publication US9422267B2, “Fused pyrimidine compounds and use thereof” (Medivation Technologies, Inc., priority 2012, dated 2016).
